Legend:
[1] = system: Penicillium funiculosum IFO 6345; assay: Viable Count of Penicillium funiculosum IFO 6345 in Erythritol Solution; format: cell-based
Protocol: (§1) Erythritol solutions of respective concentrations in the range of from 30 to 60% were prepared. To these were inoculated Staphylococcus aureus IFO 13276, Bacillus subtilis IFO 3134, and Escherichia coli IFO 3972 as bacteria, Candida albicans IFO 1549 and Saccharomyces cerevisiae ATCC 9763 as yeasts, Aspergillus niger IFO 6342, Aspergillus flavus IFO 6343, and Penicillium funiculosum IFO 6345 as fungi, respectively, in a population (concentration) of 10,000 cells/mL or more. After the inoculation, the solutions were stored at 30, 37, 45, 50, or 60° C., respectively, for 56 days and the number of viable cell was determined daily. The determination of the number of viable cell was performed by a method of coating 0.1 mL of appropriately diluted sample cultivation on an agar plate and cultivating and counting the number of viable cell (the number of colony) that grew after the cultivation.

[2] = system: Staphylococcus aureus IFO 13276; assay: Viable Count of Staphylococcus aureus IFO 13276 in Erythritol Solution; format: cell-based
Protocol: as §1

`OC[C@@H](O)[C@@H](O)CO` [Erythritol Solution, erythritol] was tested, and the “The Number of Viable Cell” value ([1]; 45° C., 40% w/w, Day 56) was 0 cells/mL, the “The Number of Viable Cell” value ([1]; 45° C., 50% w/w, Day 0) was at least 10000 cells/mL and the “The Number of Viable Cell” value ([1]; 45° C., 50% w/w, Day 3) was 1260 cells/mL. For the same compound, the “The Number of Viable Cell” value ([1]; 45° C., 50% w/w, Day 7) was 0 cells/mL, the “The Number of Viable Cell” value ([1]; 45° C., 50% w/w, Day 14) was 0 cells/mL and the “The Number of Viable Cell” value ([1]; 45° C., 50% w/w, Day 28) was 0 cells/mL. For the same compound, the “The Number of Viable Cell” value ([1]; 45° C., 50% w/w, Day 56) was 0 cells/mL, the “The Number of Viable Cell” value ([1]; 50° C., 30% w/w, Day 0) was at least 10000 cells/mL and the “The Number of Viable Cell” value ([1]; 50° C., 30% w/w, Day 3) was 0 cells/mL. The “The Number of Viable Cell” value ([1]; 50° C., 30% w/w, Day 7) was 0 cells/mL, the “The Number of Viable Cell” value ([1]; 50° C., 30% w/w, Day 14) was 0 cells/mL and the “The Number of Viable Cell” value ([1]; 50° C., 30% w/w, Day 28) was 0 cells/mL. The “The Number of Viable Cell” value ([1]; 50° C., 30% w/w, Day 56) was 0 cells/mL, the “The Number of Viable Cell” value ([1]; 50° C., 40% w/w, Day 0) was at least 10000 cells/mL and the “The Number of Viable Cell” value ([1]; 50° C., 40% w/w, Day 3) was 0 cells/mL. The “The Number of Viable Cell” value ([1]; 50° C., 40% w/w, Day 7) was 0 cells/mL, the “The Number of Viable Cell” value ([1]; 50° C., 40% w/w, Day 14) was 0 cells/mL and the “The Number of Viable Cell” value ([1]; 50° C., 40% w/w, Day 28) was 0 cells/mL. The “The Number of Viable Cell” value ([1]; 50° C., 40% w/w, Day 56) was 0 cells/mL, the “The Number of Viable Cell” value ([1]; 50° C., 50% w/w, Day 0) was at least 10000 cells/mL and the “The Number of Viable Cell” value ([1]; 50° C., 50% w/w, Day 3) was 0 cells/mL. The “The Number of Viable Cell” value ([1]; 50° C., 50% w/w, Day 7) was 0 cells/mL, the “The Number of Viable Cell” value ([1]; 50° C., 50% w/w, Day 14) was 0 cells/mL and the “The Number of Viable Cell” value ([1]; 50° C., 50% w/w, Day 28) was 0 cells/mL. The “The Number of Viable Cell” value ([1]; 50° C., 50% w/w, Day 56) was 0 cells/mL, the “growth of the microbes” value ([1]; temperature of 50° C. or more) was “prevented from growing” and the “time after which microbes died” value ([1]; temperature of 50° C. or more) was 3 days. For the same compound, the “The Number of Viable Cell” value ([2]; 30° C., 30% w/w, Day 0) was 10000 or more cells/mL, the “The Number of Viable Cell” value ([2]; 30° C., 30% w/w, Day 3) was 20400 cells/mL and the “The Number of Viable Cell” value ([2]; 30° C., 30% w/w, Day 7) was 11100 cells/mL. For the same compound, the “The Number of Viable Cell” value ([2]; 30° C., 30% w/w, Day 14) was 360 cells/mL, the “The Number of Viable Cell” value ([2]; 30° C., 30% w/w, Day 28) was 0 cells/mL and the “The Number of Viable Cell” value ([2]; 30° C., 30% w/w, Day 56) was 0 cells/mL. The “The Number of Viable Cell” value ([2]; 30° C., 40% w/w, Day 0) was 10000 or more cells/mL, the “The Number of Viable Cell” value ([2]; 30° C., 40% w/w, Day 3) was 8380 cells/mL and the “The Number of Viable Cell” value ([2]; 30° C., 40% w/w, Day 7) was 6200 cells/mL. The “The Number of Viable Cell” value ([2]; 30° C., 40% w/w, Day 14) was 4200 cells/mL, the “The Number of Viable Cell” value ([2]; 30° C., 40% w/w, Day 28) was 0 cells/mL and the “The Number of Viable Cell” value ([2]; 30° C., 40% w/w, Day 56) was 0 cells/mL. The “The Number of Viable Cell” value ([2]; 45° C., 30% w/w, Day 0) was 10000 or more cells/mL, the “The Number of Viable Cell” value ([2]; 45° C., 30% w/w, Day 3) was 0 cells/mL and the “The Number of Viable Cell” value ([2]; 45° C., 30% w/w, Day 7) was 0 cells/mL. For the same compound, the “The Number of Viable Cell” value ([2]; 45° C., 30% w/w, Day 14) was 0 cells/mL, the “The Number of Viable Cell” value ([2]; 45° C., 30% w/w, Day 28) was 0 cells/mL and the “The Number of Viable Cell” value ([2]; 45° C., 30% w/w, Day 56) was 0 cells/mL. For the same compound, the “The Number of Viable Cell” value ([2]; 45° C., 40% w/w, Day 0) was 10000 or more cells/mL, the “The Number of Viable Cell” value ([2]; 45° C., 40% w/w, Day 3) was 0 cells/mL and the “The Number of Viable Cell” value ([2]; 45° C., 40% w/w, Day 7) was 0 cells/mL. The “The Number of Viable Cell” value ([2]; 45° C., 40% w/w, Day 14) was 0 cells/mL, the “The Number of Viable Cell” value ([2]; 45° C., 40% w/w, Day 28) was 0 cells/mL and the “The Number of Viable Cell” value ([2]; 45° C., 40% w/w, Day 56) was 0 cells/mL. The “The Number of Viable Cell” value ([2]; 45° C., 50% w/w, Day 0) was 10000 or more cells/mL, the “The Number of Viable Cell” value ([2]; 45° C., 50% w/w, Day 3) was 0 cells/mL and the “The Number of Viable Cell” value ([2]; 45° C., 50% w/w, Day 7) was 0 cells/mL. For the same compound, the “The Number of Viable Cell” value ([2]; 45° C., 50% w/w, Day 14) was 0 cells/mL, the “The Number of Viable Cell” value ([2]; 45° C., 50% w/w, Day 28) was 0 cells/mL and the “The Number of Viable Cell” value ([2]; 45° C., 50% w/w, Day 56) was 0 cells/mL. For the same compound, the “The Number of Viable Cell” value ([2]; 50° C., 30% w/w, Day 0) was 10000 or more cells/mL, the “The Number of Viable Cell” value ([2]; 50° C., 30% w/w, Day 3) was 0 cells/mL and the “The Number of Viable Cell” value ([2]; 50° C., 30% w/w, Day 7) was 0 cells/mL. For the same compound, the “The Number of Viable Cell” value ([2]; 50° C., 30% w/w, Day 14) was 0 cells/mL, the “The Number of Viable Cell” value ([2]; 50° C., 30% w/w, Day 28) was 0 cells/mL and the “The Number of Viable Cell” value ([2]; 50° C., 30% w/w, Day 56) was 0 cells/mL. For the same compound, the “The Number of Viable Cell” value ([2]; 50° C., 40% w/w, Day 0) was 10000 or more cells/mL, the “The Number of Viable Cell” value ([2]; 50° C., 40% w/w, Day 3) was 0 cells/mL and the “The Number of Viable Cell” value ([2]; 50° C., 40% w/w, Day 7) was 0 cells/mL. The “The Number of Viable Cell” value ([2]; 50° C., 40% w/w, Day 14) was 0 cells/mL, the “The Number of Viable Cell” value ([2]; 50° C., 40% w/w, Day 28) was 0 cells/mL and the “The Number of Viable Cell” value ([2]; 50° C., 40% w/w, Day 56) was 0 cells/mL. The “The Number of Viable Cell” value ([2]; 50° C., 50% w/w, Day 0) was 10000 or more cells/mL, the “The Number of Viable Cell” value ([2]; 50° C., 50% w/w, Day 3) was 0 cells/mL and the “The Number of Viable Cell” value ([2]; 50° C., 50% w/w, Day 7) was 0 cells/mL. The “The Number of Viable Cell” value ([2]; 50° C., 50% w/w, Day 14) was 0 cells/mL, the “The Number of Viable Cell” value ([2]; 50° C., 50% w/w, Day 28) was 0 cells/mL and the “The Number of Viable Cell” value ([2]; 50° C., 50% w/w, Day 56) was 0 cells/mL. The “growth of the microbes” value ([2]; temperature of 50° C. or more) was “prevented from growing” and the “time after which microbes died” value ([2]; temperature of 50° C. or more) was 3 days.

Reference: patent US6489469B1, “Method for storing or transporting erythritol solution” (Nikken Chemicals Co., Ltd., priority 1999, dated 2002)
